Like-named read-outs stand apart in the source and are kept apart here.
Key:
Format in all cases: cell-based
hMC3-R = biological target: T1, hMC3-R (Homo sapiens, UniProt P41968); assay: cyclic AMP bioassay, hMC3-R
T1 construct: expressed in transfected cells; host or cells: CHO-K1

hMC4-R = biological target: T2, hMC4-R (Homo sapiens, UniProt P32245); assay: cyclic AMP bioassay, hMC4-R
T2 construct: expressed in transfected cells; host or cells: CHO-K1

hMC1-R = biological target: T3, hMC1-R (Homo sapiens, UniProt Q01726); assay: cyclic AMP bioassay, hMC1-R
T3 construct: expressed in transfected cells; host or cells: CHO-K1
T3 sequence (Q01726 whole entry): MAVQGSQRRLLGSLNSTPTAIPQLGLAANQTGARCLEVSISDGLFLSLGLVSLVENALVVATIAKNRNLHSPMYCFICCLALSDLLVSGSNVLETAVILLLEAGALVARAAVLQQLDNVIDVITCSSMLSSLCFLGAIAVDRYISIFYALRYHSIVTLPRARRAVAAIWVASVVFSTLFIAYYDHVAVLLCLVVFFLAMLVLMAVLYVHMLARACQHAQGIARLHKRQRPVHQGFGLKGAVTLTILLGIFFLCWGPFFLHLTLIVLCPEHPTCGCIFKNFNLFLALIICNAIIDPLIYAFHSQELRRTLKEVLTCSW

hMC5-R = biological target: T4, hMC5-R (Homo sapiens, UniProt P33032); assay: cyclic AMP bioassay, hMC5-R
T4 construct: expressed in transfected cells; host or cells: CHO-K1
T4 sequence (P33032 whole entry): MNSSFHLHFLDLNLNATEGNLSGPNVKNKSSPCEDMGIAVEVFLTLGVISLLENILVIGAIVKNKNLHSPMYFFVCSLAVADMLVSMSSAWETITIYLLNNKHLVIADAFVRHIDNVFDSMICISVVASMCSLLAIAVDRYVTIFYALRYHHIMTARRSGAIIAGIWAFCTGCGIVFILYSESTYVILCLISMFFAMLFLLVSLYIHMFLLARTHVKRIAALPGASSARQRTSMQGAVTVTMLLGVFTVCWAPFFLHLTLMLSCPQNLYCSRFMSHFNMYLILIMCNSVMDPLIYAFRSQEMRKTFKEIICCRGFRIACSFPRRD

[1] = Table 3A, cAMP in CHO-K1 cells, antagonist potency by Schild analysis, read-out: Kb hMC3-R
[2] = Table 3A, cAMP in CHO-K1 cells, antagonist potency by Schild analysis, read-out: Kb hMC4-R
[3] = Table 3A, cAMP in CHO-K1 cells, agonist, read-out: EC50 hMC1-R
[4] = Table 3A, cAMP in CHO-K1 cells, agonist, read-out: EC50 hMC5-R

T1 sequence (P41968 whole entry): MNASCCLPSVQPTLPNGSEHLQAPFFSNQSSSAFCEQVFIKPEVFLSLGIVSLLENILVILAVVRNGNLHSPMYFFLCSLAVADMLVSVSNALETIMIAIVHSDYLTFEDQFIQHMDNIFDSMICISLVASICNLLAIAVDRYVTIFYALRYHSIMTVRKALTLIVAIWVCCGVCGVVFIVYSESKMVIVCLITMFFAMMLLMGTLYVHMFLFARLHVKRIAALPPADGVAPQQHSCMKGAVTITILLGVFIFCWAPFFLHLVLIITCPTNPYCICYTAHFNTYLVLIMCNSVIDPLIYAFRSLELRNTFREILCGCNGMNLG
T2 sequence (P32245 whole entry): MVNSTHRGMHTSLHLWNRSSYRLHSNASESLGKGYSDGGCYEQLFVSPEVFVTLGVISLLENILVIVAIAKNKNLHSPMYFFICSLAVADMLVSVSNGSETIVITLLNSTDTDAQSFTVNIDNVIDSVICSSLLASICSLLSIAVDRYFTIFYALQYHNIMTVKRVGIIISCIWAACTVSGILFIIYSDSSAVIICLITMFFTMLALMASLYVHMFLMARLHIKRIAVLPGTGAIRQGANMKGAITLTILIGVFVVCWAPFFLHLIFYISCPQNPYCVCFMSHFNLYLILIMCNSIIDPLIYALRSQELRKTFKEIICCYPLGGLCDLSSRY

SMILES | Kb (hMC3-R; [1]) [nM] | Kb (hMC4-R; [2]) [nM] | EC50 (hMC1-R; [3]) [nM] | EC50 (hMC5-R; [4]) [nM] | EC50 (hMC3-R) [nM] | EC50 (hMC4-R) [nM] | EC50 (hMC1-R) [nM] | EC50 (hMC5-R) [nM] | Kb (hMC3-R) [nM] | Kb (hMC4-R) [nM]
CCCC[C@H](NC(C)=O)C(=O)N[C@H]1CC(=O)NCCCC[C@@H](C(=O)NCCC(=O)NCCC(=O)N[C@@H](Cc2ccc(O)cc2)C(=O)NCC(=O)N[C@@H](CCCNC(=N)N)C(=O)N[C@@H](CCCCN)C(=O)N[C@@H](CCCCN)C(=O)N[C@@H](CCCNC(=N)N)C(=O)N[C@@H](CCCNC(=N)N)C(=O)N[C@@H](CCC(N)=O)C(=O)N[C@@H](CCCNC(=N)N)C(=O)N[C@@H](CCCNC(=N)N)C(=O)N[C@@H](CCCNC(=N)N)C(N)=O)NC(=O)[C@H](Cc2c[nH]c3ccccc23)NC(=O)[C@H](CCCNC(=N)N)NC(=O)[C@@H](Cc2ccc3ccccc3c2)NC(=O)[C@H](Cc2c[nH]cn2)NC1=O | 16.2 | 7.94 | 1.39 | 0.839 |  |  |  |  |  | 
CCCC[C@H](NC(C)=O)C(=O)N[C@H]1CSSC[C@@H](C(=O)NCCC(=O)N[C@@H](Cc2ccc(O)cc2)C(=O)NCC(=O)N[C@@H](CCCNC(=N)N)C(=O)N[C@@H](CCCCN)C(=O)N[C@@H](CCCNC(=N)N)C(=O)N[C@@H](CCCNC(=N)N)C(=O)N[C@@H](CCCNC(=N)N)C(=O)N[C@@H](CCC(N)=O)C(=O)N[C@@H](CCCNC(=N)N)C(=O)N[C@@H](CCCNC(=N)N)C(=O)N[C@@H](CCCNC(=N)N)C(N)=O)NC(=O)[C@H](Cc2c[nH]c3ccccc23)NC(=O)[C@H](CCCNC(=N)N)NC(=O)[C@@H](Cc2ccccc2)NC(=O)[C@H](Cc2c[nH]cn2)NC(=O)[C@@H](C)NC1=O |  |  |  |  | 4.18 | 0.6 | 7.57 | 1790 |  | 
CCCC[C@H](NC(C)=O)C(=O)N[C@H]1CSSC[C@@H](C(=O)NCCC(=O)N[C@@H](Cc2ccc(O)cc2)C(=O)NCC(=O)N[C@@H](CCCNC(=N)N)C(=O)N[C@@H](CCCNC(=N)N)C(=O)N[C@@H](CCCCN)C(=O)N[C@@H](CCCNC(=N)N)C(=O)N[C@@H](CCCNC(=N)N)C(=O)N[C@@H](CCC(N)=O)C(=O)N[C@@H](CCCNC(=N)N)C(=O)N[C@@H](CCCNC(=N)N)C(=O)N[C@@H](CCCNC(=N)N)C(N)=O)NC(=O)[C@H](Cc2c[nH]c3ccccc23)NC(=O)[C@H](CCCNC(=N)N)NC(=O)[C@@H](Cc2ccccc2)NC(=O)[C@H](Cc2c[nH]cn2)NC(=O)[C@@H](C)NC1=O |  |  |  |  | 4.7 | 0.422 | 5.66 | 1550 |  | 
CCCC[C@H](NC(C)=O)C(=O)N[C@H]1CSSC[C@@H](C(=O)NCCC(=O)NCC(=O)N[C@@H](CCCNC(=N)N)C(=O)N[C@@H](CCCNC(=N)N)C(=O)N[C@@H](CCCCN)C(=O)N[C@@H](CCCNC(=N)N)C(=O)N[C@@H](CCCNC(=N)N)C(=O)N[C@@H](CCC(N)=O)C(=O)N[C@@H](CCCNC(=N)N)C(=O)N[C@@H](CCCNC(=N)N)C(=O)N[C@@H](CCCNC(=N)N)C(N)=O)NC(=O)[C@H](Cc2c[nH]c3ccccc23)NC(=O)[C@H](CCCNC(=N)N)NC(=O)[C@@H](Cc2ccccc2)NC(=O)[C@H](Cc2c[nH]cn2)NC(=O)[C@@H](C)NC1=O |  |  |  |  | 2.74 | 0.26 | 2.36 | 500 |  | 
CC(=O)N[C@H]1CSSC[C@@H](C(=O)N2CCC[C@H]2C(=O)N2CCC[C@H]2C(=O)N[C@@H](CCCCN)C(=O)N[C@@H](CC(=O)O)C(=O)NCCC(=O)N[C@@H](Cc2ccc(O)cc2)C(=O)NCC(=O)N[C@@H](CCCNC(=N)N)C(=O)N[C@@H](CCCNC(=N)N)C(=O)N[C@@H](CCCCN)C(=O)N[C@@H](CCCNC(=N)N)C(=O)N[C@@H](CCCNC(=N)N)C(=O)N[C@@H](CCC(N)=O)C(=O)N[C@@H](CCCNC(=N)N)C(=O)N[C@@H](CCCNC(=N)N)C(=O)N[C@@H](CCCNC(=N)N)C(N)=O)NC(=O)[C@H](C)NC(=O)[C@H](Cc2cccc3ccccc23)NC(=O)[C@H](CCCNC(=N)N)NC(=O)[C@@H](Cc2ccc3ccccc3c2)NC(=O)[C@H](Cc2c[nH]cn2)NC(=O)[C@H](CCC(=O)O)NC1=O |  |  |  |  |  |  | 29 | 173 | 22.6 | 16.7
CC(=O)N[C@H]1CSSC[C@@H](C(=O)N2CCC[C@H]2C(=O)N2CCC[C@H]2C(=O)N[C@@H](CCCCN)C(=O)N[C@@H](CC(=O)O)C(=O)NCCC(=O)N[C@@H](CCCNC(=N)N)C(=O)N[C@@H](CCCCN)C(=O)N[C@@H](CCCNC(=N)N)C(=O)N[C@@H](CCCNC(=N)N)C(=O)N[C@@H](CCCNC(=N)N)C(=O)N[C@@H](CCC(N)=O)C(=O)N[C@@H](CCCNC(=N)N)C(=O)N[C@@H](CCCNC(=N)N)C(=O)N[C@@H](CCCNC(=N)N)C(N)=O)NC(=O)[C@H](C)NC(=O)[C@H](Cc2ccc3ccccc3c2)NC(=O)[C@H](CCCNC(=N)N)NC(=O)[C@@H](Cc2ccc3ccccc3c2)NC(=O)[C@H](Cc2c[nH]cn2)NC(=O)[C@H](CCC(=O)O)NC1=O |  |  |  |  |  |  | 23.7 | 39.7 | 9.22 | 5.87
CC(=O)N[C@H]1CSSC[C@@H](C(=O)N2CCC[C@H]2C(=O)N2CCC[C@H]2C(=O)N[C@@H](CCCCN)C(=O)N[C@@H](CC(=O)O)C(=O)NCCC(=O)N[C@@H](Cc2ccc(O)cc2)C(=O)NCC(=O)N[C@@H](CCCNC(=N)N)C(=O)N[C@@H](CCCCN)C(=O)N[C@@H](CCCNC(=N)N)C(=O)N[C@@H](CCCNC(=N)N)C(=O)N[C@@H](CCCNC(=N)N)C(=O)N[C@@H](CCC(N)=O)C(=O)N[C@@H](CCCNC(=N)N)C(=O)N[C@@H](CCCNC(=N)N)C(=O)N[C@@H](CCCNC(=N)N)C(N)=O)NC(=O)[C@H](C)NC(=O)[C@H](Cc2ccc3ccccc3c2)NC(=O)[C@H](CCCNC(=N)N)NC(=O)[C@@H](Cc2ccc3ccccc3c2)NC(=O)[C@H](Cc2c[nH]cn2)NC(=O)[C@H](CCC(=O)O)NC1=O |  |  |  |  |  |  | 34.7 | 28.2 | 15 | 8.68
CC(=O)N[C@H]1CSSC[C@@H](C(=O)N2CCC[C@H]2C(=O)N2CCC[C@H]2C(=O)N[C@@H](CCCCN)C(=O)N[C@@H](CC(=O)O)C(=O)NCCC(=O)N[C@@H](Cc2ccc(O)cc2)C(=O)NCC(=O)N[C@@H](CCCNC(=N)N)C(=O)N[C@@H](CCCCN)C(=O)N[C@@H](CCCCN)C(=O)N[C@@H](CCC(N)=O)C(=O)N[C@@H](CCCNC(=N)N)C(=O)N[C@@H](CCCNC(=N)N)C(=O)N[C@@H](CCCNC(=N)N)C(=O)N[C@@H](CCCNC(=N)N)C(=O)N[C@@H](CCCNC(=N)N)C(N)=O)NC(=O)[C@H](C)NC(=O)[C@H](Cc2c[nH]c3ccccc23)NC(=O)[C@H](CCCNC(=N)N)NC(=O)[C@@H](Cc2ccc3ccccc3c2)NC(=O)[C@H](Cc2c[nH]cn2)NC(=O)[C@H](CCC(=O)O)NC1=O | 9.38 | 11.7 | 6.7 | 46.2 |  |  |  |  |  | 
CC(=O)N[C@H]1CSSC[C@@H](C(=O)N2CCC[C@H]2C(=O)N2CCC[C@H]2C(=O)N[C@@H](CCCCN)C(=O)N[C@@H](CC(=O)O)C(=O)NCCC(=O)N[C@@H](Cc2ccc(O)cc2)C(=O)NCC(=O)N[C@@H](CCCNC(=N)N)C(=O)N[C@@H](CCC(N)=O)C(=O)N[C@@H](CCCCN)C(=O)N[C@@H](CCCCN)C(=O)N[C@@H](CCCNC(=N)N)C(=O)N[C@@H](CCCNC(=N)N)C(=O)N[C@@H](CCCNC(=N)N)C(=O)N[C@@H](CCCNC(=N)N)C(=O)N[C@@H](CCCNC(=N)N)C(N)=O)NC(=O)[C@H](C)NC(=O)[C@H](Cc2c[nH]c3ccccc23)NC(=O)[C@H](CCCNC(=N)N)NC(=O)[C@@H](Cc2ccc3ccccc3c2)NC(=O)[C@H](Cc2c[nH]cn2)NC(=O)[C@H](CCC(=O)O)NC1=O | 13.7 | 9.38 | 12 | 54.2 |  |  |  |  |  | 
CC(=O)N[C@H]1CSSC[C@@H](C(=O)N2CCC[C@H]2C(=O)N2CCC[C@H]2C(=O)N[C@@H](CCCCN)C(=O)N[C@@H](CC(=O)O)C(=O)NCCC(=O)N[C@@H](Cc2ccc(O)cc2)C(=O)NCC(=O)N[C@@H](CCCNC(=N)N)C(=O)N[C@@H](CCCCN)C(=O)N[C@@H](CCCCN)C(=O)N[C@@H](CCCNC(=N)N)C(=O)N[C@@H](CCCNC(=N)N)C(=O)N[C@@H](CCCNC(=N)N)C(=O)N[C@@H](CCCNC(=N)N)C(=O)N[C@@H](CCC(N)=O)C(=O)N[C@@H](CCCNC(=N)N)C(N)=O)NC(=O)[C@H](C)NC(=O)[C@H](Cc2c[nH]c3ccccc23)NC(=O)[C@H](CCCNC(=N)N)NC(=O)[C@@H](Cc2ccc3ccccc3c2)NC(=O)[C@H](Cc2c[nH]cn2)NC(=O)[C@H](CCC(=O)O)NC1=O | 36 | 7.12 | 16.9 | 58.9 |  |  |  |  |  | 
CC(=O)N[C@H]1CSSC[C@@H](C(=O)N2CCC[C@H]2C(=O)N2CCC[C@H]2C(=O)N[C@@H](CCCCN)C(=O)N[C@@H](CC(=O)O)C(=O)NCCC(=O)N[C@@H](Cc2ccc(O)cc2)C(=O)NCC(=O)N[C@@H](CCCNC(=N)N)C(=O)N[C@@H](CCCCN)C(=O)N[C@@H](CCC(N)=O)C(=O)N[C@@H](CCCCN)C(=O)N[C@@H](CCCNC(=N)N)C(=O)N[C@@H](CCCNC(=N)N)C(=O)N[C@@H](CCCNC(=N)N)C(=O)N[C@@H](CCCNC(=N)N)C(=O)N[C@@H](CCCNC(=N)N)C(N)=O)NC(=O)[C@H](C)NC(=O)[C@H](Cc2c[nH]c3ccccc23)NC(=O)[C@H](CCCNC(=N)N)NC(=O)[C@@H](Cc2ccc3ccccc3c2)NC(=O)[C@H](Cc2c[nH]cn2)NC(=O)[C@H](CCC(=O)O)NC1=O | 41.7 | 10.9 | 7.9 | 62.4 |  |  |  |  |  | 
CC(=O)N[C@H]1CSSC[C@@H](C(=O)N2CCC[C@H]2C(=O)N2CCC[C@H]2C(=O)N[C@@H](CCCCN)C(=O)N[C@@H](CC(=O)O)C(=O)NCCC(=O)N[C@@H](Cc2ccc(O)cc2)C(=O)NCC(=O)N[C@@H](CCCNC(=N)N)C(=O)N[C@@H](CCCCN)C(=O)N[C@@H](CCCCN)C(=O)N[C@@H](CCCNC(=N)N)C(=O)N[C@@H](CCCNC(=N)N)C(=O)N[C@@H](CCCNC(=N)N)C(=O)N[C@@H](CCC(N)=O)C(=O)N[C@@H](CCCNC(=N)N)C(=O)N[C@@H](CCCNC(=N)N)C(N)=O)NC(=O)[C@H](C)NC(=O)[C@H](Cc2c[nH]c3ccccc23)NC(=O)[C@H](CCCNC(=N)N)NC(=O)[C@@H](Cc2ccc3ccccc3c2)NC(=O)[C@H](Cc2c[nH]cn2)NC(=O)[C@H](CCC(=O)O)NC1=O | 20.8 | 7.31 | 16.4 | 44.2 |  |  |  |  |  | 

Source: patent US20090232838A1, “Ligands of melanocortin receptors” (priority 2005, published 2009)
